# The source made the active and inactive calls. No cut-off for these calls is given here.
# Experiments:
# Acetylcholinesterase [1] = biological target: T1, Acetylcholinesterase (Homo sapiens, UniProt P22303)
# Description: Inhibition of recombinant human AChE assessed as inhibition constant for enzyme-inhibitor complex using acetylthiocholine iodide as substrate preincubated for 20 mins followed by substrate addition and measured for 3 mins by spectrophotometry based Lineweaver-Burk plot analysis
# Acetylcholinesterase [2] = biological target: T1, Acetylcholinesterase; remark: listed apart in the source
# Description: Inhibition of recombinant human AChE assessed as inhibition constant for enzyme-substrate-inhbitor complex using acetylthiocholine iodide as substrate preincubated for 20 mins followed by substrate addition and measured for 3 mins by spectrophotometry based Lineweaver-Burk plot analysis
# Cannabinoid receptor 2 [3] = biological target: T2, Cannabinoid receptor 2 (Homo sapiens, UniProt P34972); assay: Agonist activity at CB2R in human U266 cells assessed as reduction in MIF gene expression at 50 uM incubated for 2 hrs by qRT-PCR analysis; assay type: cell-based
# T2 sequence (P34972 whole entry): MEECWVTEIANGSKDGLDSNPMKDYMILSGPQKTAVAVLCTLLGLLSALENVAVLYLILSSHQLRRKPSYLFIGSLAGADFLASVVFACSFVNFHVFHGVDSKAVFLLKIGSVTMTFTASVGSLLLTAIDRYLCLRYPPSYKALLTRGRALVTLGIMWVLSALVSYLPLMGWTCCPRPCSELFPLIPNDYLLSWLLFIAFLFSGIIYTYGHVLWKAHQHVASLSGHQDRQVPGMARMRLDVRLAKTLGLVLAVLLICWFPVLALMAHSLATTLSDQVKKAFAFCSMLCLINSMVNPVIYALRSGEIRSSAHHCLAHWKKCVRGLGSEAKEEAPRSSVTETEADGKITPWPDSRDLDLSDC
# Cannabinoid receptor 2 [4] = biological target: T2, Cannabinoid receptor 2; assay: Agonist activity at CB2R in human U266 cells assessed as reduction in STAT3 gene expression at 50 uM incubated for 2 hrs by qRT-PCR analysis; assay type: cell-based
# Cannabinoid receptor 2 [5] = biological target: T2, Cannabinoid receptor 2; assay: Agonist activity at CB2R in human U266 cells assessed as reduction in MIF gene expression at 50 uM pretreated for 30 mins with AM630 and incubated for 2 hrs by qRT-PCR analysis; assay type: cell-based
# Cannabinoid receptor 2 [6] = biological target: T2, Cannabinoid receptor 2; assay: Agonist activity at CB2R in human U266 cells assessed as reduction in STAT3 gene expression at 50 uM pretreated for 30 mins with AM630 incubated for 2 hrs by qRT-PCR analysis; assay type: cell-based
# Cannabinoid receptor 2 [7] = biological target: T2, Cannabinoid receptor 2; assay: Agonist activity at human CB2R expressed in CHO-K1 cells assessed as increase in intracellular calcium mobilization by calcein4-AM dye based fluorescence assay relative to control; assay type: functional, cell-based
# [8] = biological target: Cannabinoid receptor 1 (Homo sapiens) (UniProt P21554); assay: Agonist activity at human CB1R expressed in CHO-K1 cells assessed as increase in intracellular calcium mobilization by calcein4-AM dye based fluorescence assay; assay type: functional, cell-based
# Cannabinoid receptor 1 (Homo sapiens), sequence (P21554 whole entry): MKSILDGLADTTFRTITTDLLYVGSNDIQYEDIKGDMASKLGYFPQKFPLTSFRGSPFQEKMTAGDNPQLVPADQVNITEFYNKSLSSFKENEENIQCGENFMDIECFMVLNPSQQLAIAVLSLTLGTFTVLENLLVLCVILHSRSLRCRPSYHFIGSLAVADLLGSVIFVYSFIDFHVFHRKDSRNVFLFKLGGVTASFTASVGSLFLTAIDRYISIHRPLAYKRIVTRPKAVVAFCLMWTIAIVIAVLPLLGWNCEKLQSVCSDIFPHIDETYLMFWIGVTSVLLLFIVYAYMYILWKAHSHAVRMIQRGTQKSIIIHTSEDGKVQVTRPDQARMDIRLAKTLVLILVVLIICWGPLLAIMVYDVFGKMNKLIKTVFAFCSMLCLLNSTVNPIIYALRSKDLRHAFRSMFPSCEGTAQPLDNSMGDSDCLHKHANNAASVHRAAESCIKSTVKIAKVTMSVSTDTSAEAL
# Cannabinoid receptor 2 [9] = biological target: T2, Cannabinoid receptor 2
# [10] = biological target: Cholinesterase (Homo sapiens) (UniProt P06276); assay: Inhibition of human BChE at 10 uM using butyrylthiocholine iodide as substrate preincubated for 20 mins followed by substrate addition and measured for 3 mins by spectrophotometry based Ellman's method relative to control
# Cholinesterase (Homo sapiens), sequence (P06276 whole entry): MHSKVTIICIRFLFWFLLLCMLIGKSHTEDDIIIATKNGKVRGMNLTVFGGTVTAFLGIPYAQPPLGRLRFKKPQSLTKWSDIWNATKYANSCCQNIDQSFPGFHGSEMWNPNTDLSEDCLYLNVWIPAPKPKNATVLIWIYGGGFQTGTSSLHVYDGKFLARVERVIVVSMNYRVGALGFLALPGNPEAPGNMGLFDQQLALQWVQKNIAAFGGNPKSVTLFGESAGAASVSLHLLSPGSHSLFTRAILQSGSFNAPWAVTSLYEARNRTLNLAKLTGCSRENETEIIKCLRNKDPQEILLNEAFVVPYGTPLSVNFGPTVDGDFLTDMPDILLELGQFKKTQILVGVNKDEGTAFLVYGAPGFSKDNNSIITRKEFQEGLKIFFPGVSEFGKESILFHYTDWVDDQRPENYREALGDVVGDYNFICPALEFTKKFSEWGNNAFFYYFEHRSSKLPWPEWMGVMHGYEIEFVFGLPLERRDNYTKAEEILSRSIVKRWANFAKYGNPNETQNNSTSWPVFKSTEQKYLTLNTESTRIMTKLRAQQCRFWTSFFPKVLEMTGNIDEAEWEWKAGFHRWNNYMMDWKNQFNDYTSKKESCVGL
# Acetylcholinesterase [11] = biological target: T1, Acetylcholinesterase; assay: Inhibition of recombinant human AChE at 10 uM using acetylthiocholine iodide as substrate preincubated for 20 mins followed by substrate addition and measured for 3 mins by spectrophotometry based Ellman's method relative to control
# [12] = biological target: Cannabinoid receptor 1 (Homo sapiens) (UniProt P21554); assay: Binding affinity at human CB1R expressed in CHO cells at 10 uM incubated for 3 hrs by microbeta scintillation counting relative to control; assay type: cell-based
# Cannabinoid receptor 2 [13] = biological target: T2, Cannabinoid receptor 2; assay: biochemical
# T1 sequence (P22303 whole entry): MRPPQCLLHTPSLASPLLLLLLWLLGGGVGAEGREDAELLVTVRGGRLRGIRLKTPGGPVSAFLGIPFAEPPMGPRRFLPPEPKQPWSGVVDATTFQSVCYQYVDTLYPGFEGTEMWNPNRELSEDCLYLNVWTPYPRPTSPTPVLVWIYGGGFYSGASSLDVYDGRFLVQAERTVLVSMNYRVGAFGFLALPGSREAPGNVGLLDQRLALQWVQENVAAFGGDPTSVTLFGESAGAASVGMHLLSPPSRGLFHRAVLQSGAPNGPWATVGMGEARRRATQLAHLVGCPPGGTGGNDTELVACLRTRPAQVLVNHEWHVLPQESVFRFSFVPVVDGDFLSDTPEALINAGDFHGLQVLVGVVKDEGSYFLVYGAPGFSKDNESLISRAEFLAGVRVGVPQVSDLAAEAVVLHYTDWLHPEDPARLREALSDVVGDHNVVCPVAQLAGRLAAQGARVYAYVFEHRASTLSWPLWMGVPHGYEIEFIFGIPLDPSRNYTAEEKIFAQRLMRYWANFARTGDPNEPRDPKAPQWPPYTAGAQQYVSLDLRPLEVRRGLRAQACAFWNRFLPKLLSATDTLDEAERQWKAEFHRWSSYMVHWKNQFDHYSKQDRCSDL
Compound,Ki (Acetylcholinesterase [1]) [µM],Ki (Acetylcholinesterase [2]) [µM],Activity (Cannabinoid receptor 2 [3]),Activity (Cannabinoid receptor 2 [4]),Activity (Cannabinoid receptor 2 [5]),Activity (Cannabinoid receptor 2 [6]),Emax (Cannabinoid receptor 2 [7]) [%],Activity [8],EC50 (Cannabinoid receptor 2 [9]) [µM],inhibition [10] [%],inhibition (Acetylcholinesterase [11]) [%],Activity [12] [%],Ki (Cannabinoid receptor 2 [13]) [µM]
CCOc1ccc(Cc2nc3cc(C(=O)NCCSSCCNc4c5c(nc6ccccc46)CCCC5)ccc3n2CCC(C)C)cc1,0.0167,0.0279,–,–,–,–,–,–,–,–,–,–,–
CCOc1ccc(Cc2nc3cc(C(=O)NCCCCNc4c5c(nc6ccccc46)CCCC5)ccc3n2CCC(C)C)cc1,–,–,Active,Active,Active,Active,39,inactive,0.911,–,–,–,–
CCOc1ccc(Cc2nc3cc(C(=O)N(CC)CC)ccc3n2CCC(C)C)cc1,–,–,Active,Active,Active,Active,–,–,–,< 10,< 10,24,–
CCOc1ccc(Cc2nc3cc(C(=O)N(CC)CC)ccc3n2CCCNc2c3c(nc4ccccc24)CCCC3)cc1,–,–,–,–,–,–,–,–,–,–,–,–,30.7
CCOc1ccc(Cc2nc3cc(C(=O)N(CC)CC)ccc3n2CCCCCCNc2c3c(nc4ccccc24)CCCC3)cc1,0.0885,0.206,Active,Active,Active,Active,51,inactive,–,–,–,–,–
CCOc1ccc(Cc2nc3cc(C(=O)NCCOCCOCCNc4c5c(nc6ccccc46)CCCC5)ccc3n2CCC(C)C)cc1,–,–,Active,Active,Active,Active,–,–,–,–,–,–,–

# Source: ChEMBL document CHEMBL4354814 (J Med Chem, 2019)
